For the experiment, the target named is GTPase HRas (Homo sapiens) (UniProt P01112). In words: activated Ras mutant GTP binding inhibitors, dose response, biochemical, multiplex bead flow cytometry (AID 1341).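 Also: GST-tagged constitutively activated Ras mutant immobilized on beads and multiplexed with other GTPases; potency for blocking fluorescent GTP binding to Ras so compounds act as competitors.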 As to conditions: bead-based flow cytometry, Bodipy-FL-GTP binding. On the technique in general: In flow cytometry, cells or beads pass a laser one at a time.

“And” between values parts separate entries of the source, which are not always exact repeats. Equal entries are not always repeated.

As a reminder, the EC50 is the concentration giving half of the maximal effect. Turning to `Cc1cc(C(=O)O)sc1CNCc1ccccc1Cl`, the EC50 was 0.43 µM.

On to `Cc1ccc(C)c(OCCn2cc(C(=O)O)c3ccccc32)c1`, for which the EC50 is 0.195 µM.

`N#Cc1c(-c2ccccc2)nc(SCC(=O)Nc2ccccc2)[nH]c1=O`: the EC50 is 1.97 µM.

In the case of `COc1ccc(C(=O)c2c(O)cc(-c3ccc(OC)cc3)oc2=O)cc1`, the EC50 was 5.96 µM.

Regarding `CC(C)Cc1csc(NC(=O)c2ccccc2Cl)c1C(=O)O`, the EC50 is 0.635 µM.

Take `CC1(C)Cc2c(sc(NC(=S)NC(=O)c3ccccc3)c2C(=O)O)CO1`: the concentration for a half-maximal effect (EC50) was 0.144 µM and 0.145 µM.

Take `CC(=O)c1c(C)[nH]c(C(=O)N2CCc3ccccc3C2)c1C`: the EC50 is 2.46 µM.

With `Cc1cc(NC(=O)CSc2nc(-c3ccccc3)c(C#N)c(=O)[nH]2)no1`, the EC50 is 11 µM.

For the origin of these results see PubChem BioAssay AID1341 (NMMLSC, 2008).
